Assay results published in patent US5977133A, “Pyridone antibiotic with improved safety profile” (priority 1998, dated 1999).
Converted amounts (≈) assume the structure as drawn.

Assays:
[1] = tested on: staphylococcus aureus NTCC 10649; assay: In vivo efficacy, mouse infection (ED50); settings: Staphylococcus aureus, NTCC10649, in Mus musculus, 168 h
S. epidermidis (CiproR) = assay: In vitro MIC, agar dilution; type: cell-based; settings: Staphylococcus epidermidis
[2] = tested on: Streptococcus pneumoniae 6303; assay: In vivo efficacy, mouse infection (ED50); settings: Streptococcus pneumoniae, 6303, in Mus musculus, 168 h
Escherichia coli JUHL = assay: In vivo efficacy, mouse infection (ED50); settings: Escherichia coli, in Mus musculus, 168 h
E. faecalis (VanS) = assay: In vitro MIC, agar dilution; type: cell-based; settings: Enterococcus faecalis
H. pylori = assay: In vitro MIC, agar dilution; type: cell-based; settings: Helicobacter pylori
P. mirabilis = assay: In vitro MIC, agar dilution; type: cell-based; settings: Proteus mirabilis
H. influenzae = assay: In vitro MIC, agar dilution; type: cell-based; settings: Haemophilus influenzae
N. gonorrhoeae = assay: In vitro MIC, agar dilution; type: cell-based; settings: Neisseria gonorrhoeae
S. pneumoniae (CiproR) = assay: In vitro MIC, agar dilution; type: cell-based; settings: Streptococcus pneumoniae, read-out: MIC Range
S. epidermidis (CiproS) = assay: In vitro MIC, agar dilution; type: cell-based; settings: Staphylococcus epidermidis
S. pyogenes = assay: In vitro MIC, agar dilution; type: cell-based; settings: Streptococcus pyogenes
Klebsiella spp. = assay: In vitro MIC, agar dilution; type: cell-based; settings: Klebsiella
M. avium = assay: In vitro MIC, agar dilution; type: cell-based; settings: Mycobacterium avium
Enterobacter spp. = assay: In vitro MIC, agar dilution; type: cell-based; settings: Enterobacter
P. aeruginosa (CiproS) = assay: In vitro MIC, agar dilution; type: cell-based; settings: Pseudomonas aeruginosa
S. aureus (CiproR) = assay: In vitro MIC, agar dilution; type: cell-based; settings: Staphylococcus aureus
S. pneumoniae (PenR) = assay: In vitro MIC, agar dilution; type: cell-based; settings: Streptococcus pneumoniae
P. aeruginosa (CiproR) = assay: In vitro MIC, agar dilution; type: cell-based
C. difficile = assay: In vitro MIC, agar dilution; type: cell-based; settings: Clostridioides difficile
E. faecium (CiproS) = assay: In vitro MIC, agar dilution; type: cell-based; settings: Enterococcus faecium
Legionella spp. = assay: microbe, parasite or virus in culture; type: cell-based; settings: Legionella
S. aureus (CiproS) = assay: In vitro MIC, agar dilution; type: cell-based; settings: Staphylococcus aureus
Enterococcus spp. (VanR) = assay: In vitro MIC, agar dilution; type: cell-based; settings: Enterococcus
E. faecium (VanS) = assay: In vitro MIC, agar dilution; type: cell-based; settings: Enterococcus faecium
M. pneumoniae = assay: In vitro MIC, agar dilution; type: cell-based; settings: Mycoplasmoides pneumoniae, read-out: MIC Range
Providencia spp. = assay: In vitro MIC, agar dilution; type: cell-based
[3] = tested on: ciprofloxacin resistant staphylococcal strains; assay: In vitro MIC, agar dilution (summary in text); type: cell-based
C. freundii = assay: In vitro MIC, agar dilution; type: cell-based; settings: Citrobacter freundii
B. fragilis = assay: In vitro MIC, agar dilution; type: cell-based; settings: Bacteroides fragilis
M. catarrhalis = assay: In vitro MIC, agar dilution; type: cell-based; settings: Moraxella catarrhalis
Shigella spp. = assay: microbe, parasite or virus in culture; type: cell-based; settings: read-out: MIC Range
E. coli = assay: In vitro MIC, agar dilution; type: cell-based; settings: Escherichia coli, 25 isolates
Method in brief: (§1)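 MIC, the lowest compound level without growth versus a drug-free BHI control plate, with faint haze or scattered colonies scored as no growth. About 10^4 CFU was replicator-spotted from 1:100 dilutions, or 1:10 for slow-growing strains, and plates were read after ~20–24 h at 35–37 °C.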

Salmonella spp. = assay: In vitro MIC, agar dilution; type: cell-based; settings: 23 isolates
Method in brief: as §1

S. pneumoniae (PenS) = assay: In vitro MIC, agar dilution; type: cell-based; settings: Streptococcus pneumoniae

Compound: O=C(O)c1cn(C2CC2)c2cc(N3CCNCC3)c(F)cc2c1=O [Ciprofloxacin, ciprofloxacin]
- ED50 ([1]; po): 18.3 mg/kg
- ED50 ([1]; sc): 3.1 mg/kg
- MIC50 (S. epidermidis (CiproR)): 16 µg/mL (≈ 48.3 µM)
- MIC90 (S. epidermidis (CiproR)): > 128 µg/mL
- ED50 ([2]; po): > 100 mg/kg
- ED50 ([2]; sc): > 50 mg/kg
- ED50 (Escherichia coli JUHL; po): 4.1 mg/kg
- ED50 (Escherichia coli JUHL; sc): 1 mg/kg
- MIC50 (E. faecalis (VanS)): 2 µg/mL (≈ 6.04 µM)
- MIC90 (E. faecalis (VanS)): 4 µg/mL (≈ 12.1 µM)
- MIC (E. faecalis (VanS); read-out: MIC Range): 1 to 4 µg/mL (≈ 3.02 to 12.1 µM)
- MIC50 (H. pylori): 0.5 µg/mL (≈ 1.51 µM)
- MIC90 (H. pylori): 0.5 µg/mL (≈ 1.51 µM)
- MIC (H. pylori; read-out: MIC Range): 0.12 to 0.5 µg/mL (≈ 0.362 to 1.51 µM)
- MIC50 (P. mirabilis): 0.015 µg/mL (≈ 0.0453 µM)
- MIC90 (P. mirabilis): 0.03 µg/mL (≈ 0.0905 µM)
- MIC (P. mirabilis; read-out: MIC Range): 0.015 to 0.06 µg/mL (≈ 0.0453 to 0.181 µM)
- MIC50 (H. influenzae): 0.015 µg/mL (≈ 0.0453 µM)
- MIC90 (H. influenzae): 0.015 µg/mL (≈ 0.0453 µM)
- MIC (H. influenzae; read-out: MIC Range): 0.008 to 0.015 µg/mL (≈ 0.0241 to 0.0453 µM)
- MIC50 (N. gonorrhoeae): 0.008 µg/mL (≈ 0.0241 µM)
- MIC90 (N. gonorrhoeae): 0.03 µg/mL (≈ 0.0905 µM)
- MIC (N. gonorrhoeae; read-out: MIC Range): 0.004 to 0.12 µg/mL (≈ 0.0121 to 0.362 µM)
- MIC (S. pneumoniae (CiproR)): 4 to 8 µg/mL (≈ 12.1 to 24.1 µM)
- MIC50 (S. epidermidis (CiproS)): 0.25 µg/mL (≈ 0.754 µM)
- MIC90 (S. epidermidis (CiproS)): 0.25 µg/mL (≈ 0.754 µM)
- MIC (S. epidermidis (CiproS); read-out: MIC Range): 0.06 to 0.5 µg/mL (≈ 0.181 to 1.51 µM)
- MIC50 (S. pyogenes): 0.5 µg/mL (≈ 1.51 µM)
- MIC90 (S. pyogenes): 1 µg/mL (≈ 3.02 µM)
- MIC (S. pyogenes; read-out: MIC Range): 0.25 to 4 µg/mL (≈ 0.754 to 12.1 µM)
- MIC50 (Klebsiella spp.): 0.06 µg/mL (≈ 0.181 µM)
- MIC90 (Klebsiella spp.): 0.12 µg/mL (≈ 0.362 µM)
- MIC (Klebsiella spp.; read-out: MIC Range): 0.004 to 0.5 µg/mL (≈ 0.0121 to 1.51 µM)
- MIC50 (M. avium): 16 µg/mL (≈ 48.3 µM)
- MIC90 (M. avium): 32 µg/mL (≈ 96.6 µM)
- MIC50 (Enterobacter spp.): 0.015 µg/mL (≈ 0.0453 µM)
- MIC90 (Enterobacter spp.): 0.03 µg/mL (≈ 0.0905 µM)
- MIC (Enterobacter spp.; read-out: MIC Range): 0.008 to 0.12 µg/mL (≈ 0.0241 to 0.362 µM)
- MIC50 (P. aeruginosa (CiproS)): 0.12 µg/mL (≈ 0.362 µM)
- MIC90 (P. aeruginosa (CiproS)): 0.5 µg/mL (≈ 1.51 µM)
- MIC (P. aeruginosa (CiproS); read-out: MIC Range): 0.06 to 2 µg/mL (≈ 0.181 to 6.04 µM)
- MIC50 (S. aureus (CiproR)): 32 µg/mL (≈ 96.6 µM)
- MIC90 (S. aureus (CiproR)): 128 µg/mL (≈ 386 µM)
- MIC50 (S. pneumoniae (PenR)): 2 µg/mL (≈ 6.04 µM)
- MIC90 (S. pneumoniae (PenR)): 2 µg/mL (≈ 6.04 µM)
- MIC (S. pneumoniae (PenR); read-out: MIC Range): 1 to 2 µg/mL (≈ 3.02 to 6.04 µM)
- MIC50 (P. aeruginosa (CiproR); Pseudomonas aeruginosa): 64 µg/mL (≈ 193 µM)
- MIC90 (P. aeruginosa (CiproR); Pseudomonas aeruginosa): 128 µg/mL (≈ 386 µM)
- MIC90 (P. aeruginosa (CiproR); ciprofloxacin resistant P. aeruginosa strains): 128 (g/mL
- MIC50 (C. difficile): 16 µg/mL (≈ 48.3 µM)
- MIC90 (C. difficile): 16 µg/mL (≈ 48.3 µM)
- MIC (C. difficile; read-out: MIC Range): 16 µg/mL (≈ 48.3 µM)
- MIC50 (E. faecium (CiproS)): 2 µg/mL (≈ 6.04 µM)
- MIC90 (E. faecium (CiproS)): 4 µg/mL (≈ 12.1 µM)
- MIC (E. faecium (CiproS); read-out: MIC Range): 2 to 4 µg/mL (≈ 6.04 to 12.1 µM)
- MIC50 (Legionella spp.): 0.25 µg/mL (≈ 0.754 µM)
- MIC90 (Legionella spp.): 0.5 µg/mL (≈ 1.51 µM)
- MIC (Legionella spp.; read-out: MIC Range): 0.12 to 0.5 µg/mL (≈ 0.362 to 1.51 µM)
- MIC50 (S. aureus (CiproS)): 0.25 µg/mL (≈ 0.754 µM)
- MIC90 (S. aureus (CiproS)): 0.5 µg/mL (≈ 1.51 µM)
- MIC (S. aureus (CiproS); read-out: MIC Range): 0.06 to 0.5 µg/mL (≈ 0.181 to 1.51 µM)
- MIC50 (Enterococcus spp. (VanR)): 4 µg/mL (≈ 12.1 µM)
- MIC90 (Enterococcus spp. (VanR)): 4 µg/mL (≈ 12.1 µM)
- MIC50 (E. faecium (VanS)): 4 µg/mL (≈ 12.1 µM)
- MIC90 (E. faecium (VanS)): 4 µg/mL (≈ 12.1 µM)
- MIC (E. faecium (VanS); read-out: MIC Range): 1 to 4 µg/mL (≈ 3.02 to 12.1 µM)
- MIC (M. pneumoniae): 1 to 2 µg/mL (≈ 3.02 to 6.04 µM)
- MIC50 (Providencia spp.; Providencia): 0.03 µg/mL (≈ 0.0905 µM)
- MIC90 (Providencia spp.; Providencia): 0.25 µg/mL (≈ 0.754 µM)
- MIC (Providencia spp.; Providencia spp., 28 isolates, read-out: MIC Range): 0.015 to 0.25 µg/mL (≈ 0.0453 to 0.754 µM)
- MIC90 [3]: > 128 µg/mL
- MIC50 (C. freundii): 0.015 µg/mL (≈ 0.0453 µM)
- MIC90 (C. freundii): 0.12 µg/mL (≈ 0.362 µM)
- MIC (C. freundii; read-out: MIC Range): 0.004 to 0.5 µg/mL (≈ 0.0121 to 1.51 µM)
- MIC50 (B. fragilis): 8 µg/mL (≈ 24.1 µM)
- MIC90 (B. fragilis): 16 µg/mL (≈ 48.3 µM)
- MIC (B. fragilis; read-out: MIC Range): 4 to 32 µg/mL (≈ 12.1 to 96.6 µM)
- MIC50 (M. catarrhalis): 0.03 µg/mL (≈ 0.0905 µM)
- MIC90 (M. catarrhalis): 0.06 µg/mL (≈ 0.181 µM)
- MIC (M. catarrhalis; read-out: MIC Range): 0.008 to 0.06 µg/mL (≈ 0.0241 to 0.181 µM)
- MIC (Shigella spp.): 0.008 to 0.015 µg/mL (≈ 0.0241 to 0.0453 µM)
- MIC (E. coli): 0.008 to 0.03 µg/mL (≈ 0.0241 to 0.0905 µM)
- MIC50 (E. coli; read-out: MIC50): 0.03 µg/mL (≈ 0.0905 µM)
- MIC90 (E. coli; read-out: MIC90): 0.03 µg/mL (≈ 0.0905 µM)
- MIC (Salmonella spp.): 0.004 to 0.5 µg/mL (≈ 0.0121 to 1.51 µM)
- MIC50 (Salmonella spp.; read-out: MIC50): 0.03 µg/mL (≈ 0.0905 µM)
- MIC90 (Salmonella spp.; read-out: MIC90): 0.03 µg/mL (≈ 0.0905 µM)
- MIC50 (S. pneumoniae (PenS)): 2 µg/mL (≈ 6.04 µM)
- MIC90 (S. pneumoniae (PenS)): 4 µg/mL (≈ 12.1 µM)
- MIC (S. pneumoniae (PenS); read-out: MIC Range): 1 to 8 µg/mL (≈ 3.02 to 24.1 µM)
